What was measured:
[1] = system: B16F10 tumor cells; assay: B16F10 murine melanoma model; assay type: in vivo; details: for Tumor inhibition rate (%): Day 18
Experimental: The B16F10 murine melanoma model is a classic melanoma pharmaceutical effect evaluation model, which is made by subcutaneously inoculating the same B16F10 tumor cells into female C57BL/6 mice. The test compounds were administrated to evaluate their inhibitory effects on tumor growth in the model.
(§1) B16F10 tumor cells were cultured in a DMEM medium containing inactivated 10% fetal bovine serum, 100 U/ml penicillin, 100 μg/ml streptomycin and 2 mM glutamine in an incubator at 37° C. in the presence of 5% CO2; and after the cells grew all over, the tumor cells were divided and passaged in respective flasks every 3 to 4 days. The tumor cells in the logarithmic growth phase were used for in vivo inoculation of tumors.
The B16F10 tumor cells resuspended in a serum-free DMEM culture solution were inoculated subcutaneously at 1×10^5/100 μl to the right ribs of experimental animals. In the second group, when the tumor grew to 75 mm^3, 12 animals with a uniform tumor volume were selected and administered according to the experimental design.
The first day of tumor inoculation was D0, the first, third, and fourth groups were dosed on the second day of tumor inoculation, and the second group was dosed when the tumor volume reached 75 mm^3.
(§2) Tumor volume: the tumor volume was measured 3 times a week with a vernier caliper, and the long and short diameters of the tumor were measured. The volume was calculated with a formula as follows:
(§3) volume=0.5×long diameter×short diameter^2.
Tumor growth inhibition rate (TGI, %)=(1-T/C)×100.
(§4) T/C(%)=(average tumor volume of treatment groups on the current day-average tumor volume of treatment groups on the initial day D0)/(average tumor volume of the control group on the current day-average tumor volume of the control group on the initial day D0)×100.

[2] = system: A20 tumor cells; assay: A20 murine lymphoma (B lymphocytes) homotransplantation model; assay type: in vivo, BALB/c mice; details: for TGI (%): 50 mg/kg p.o. QD
Experimental: A20 murine lymphoma (B lymphocyte) homotransplantation model is a classic pharmaceutical effect evaluation model for B lymphocyte cancer. It was constructed by subcutaneously inoculating homogeneous A20 tumor cells into the right ribs of female BALB/c mice by the same species. The test compounds were administrated to evaluate their inhibitory effects on tumor growth in the model.
as §1, with “A20 tumor” for “B16F10 tumor”, “in an RPMI 1640” for “in a DMEM”, “and 0.05” for “and 2”, “mM 2-mercaptoethanol” for “mM glutamine”
The A20 tumor cells resuspended in a serum-free RPMI 1640 culture solution were inoculated subcutaneously at 3×10^5/100 μl to the right ribs of experimental animals. A total of 30 animals were inoculated. On the first day after tumor cell inoculation, 24 animals with a uniform body weight were selected in terms of body weight, and were grouped for dosage, with 12 animals in each group. The specific dosage regimen was carried out according to the experimental design.
as §2, §3
Tumor growth inhibition rate (TGI, %)=(1−T/C)×100,
as §4
Statistical analysis of tumor volume was carried out between groups by the SPSS T-test.

[3] = Stability of acetate crystal at 60° C. closed and 40° C./75% RH open, HPLC purity and XRPD; assay type: physicochemical; details: for XPRD (crystal form after storage): 7 days; for Purity over 7 days (area %): initial purity 98.79 area %
Experimental: A certain amount of acetate crystal was held at 60° C. in a closed condition and at 40° C./75% RH in an open condition for a maximum of 7 days. Samples were taken on days 0, 3, and 7 and diluted with a diluent to about 0.3 mg/mL for HPLC purity testing. The solid samples were tested by XRPD to determine the crystal form.

[4] = system: 6-OHDA-induced contralateral rotation; assay: 6-OHDA-induced rat rotation experiment, first stage (number of rotations); assay type: in vivo, Wistar rats
Description: After long-term use of levodopa, patients with Parkinson's disease are prone to drug resistance (end-of-dose phenomenon). That is, the duration of its pharmaceutical effect tends to gradually become shorter (shortened opening period), its efficacy will become weaker and weaker, and the symptoms of the patients are becoming more and more uncontrollable. By the combined use with the test compound, the efficacy of levodopa can be restored for patients with Parkinson's disease in the off phase, who have already experienced the end-of-dose phenomenon. The rat model of Parkinson's disease was constructed by fixed-point injection of 6-hydroxydopamine (6-OHDA) to damage the substantia nigra striatum, and then the animals were administrated with levodopa (L-DOPA)/Benserazide (BID) for a long term (3-4 weeks as planned).
There should be at least an interval of 1 day between rotation tests for respective doses. A total of 6 tests were carried out in the first stage.
[…] injection volume: each rat was injected with 4 μl of 6-OHDA solution (2.5 μg/μl) on the left medial forebrain bundle (MFB).
Coordinates for injecting […]: by taking the anterior fontanelle as a standard reference point and with reference to the stereotactic map of rat brain, the injection was performed on the left medial forebrain bundle at: anterior(A), −2.5 mm; lateral (L), +2.0 mm; ventral (V), −8.5 mm.
[…] injection speed: the injection speed was 1 μl/min; after injection, the needle was left in situ for 5 min, and then slowly withdrawn at a speed of 1 mm/min; and the wound was then sutured. Grouping and administration were carried out according to the method of experimental design.
In the first stage, only the number of rotations of the animal was tested, and only the rotation response time was tested in the second stage.
The test results are represented as “mean±standard deviation”. The data was statistically analyzed by the SPSS16.0 software package. One-way ANOVA, paired sample T test and independent sample T test were used for comparison, with P<0.05 showing a statistical difference.

## Nc1nc(NCCc2ccc(NC3COC3)cc2)nc2nc(-c3ccco3)nn12 [Compound 22, 2-(furan-2-yl)-N5-(4-(oxetan-3-ylamino)phenethyl)-[1,2,4]triazolo[1,5-a][1,3,5]triazine-5,7-diamine]
[1]; 50 mg/kg p.o. QD
  Tumor inhibition rate (%): 22.1%
[1]; 50 mg/kg p.o. QD + Anti PD-1 10 mg/kg i.p. 2/WK
  Tumor inhibition rate (%): 48.1%
[1]; alone or combined with anti PD-1
  Animal death / changes in body weight: No animal death or significant changes in body weight
[2]; 50 mg/kg p.o. QD 24 days
  Clinical abnormalities during the dosage: no obvious clinical abnormalities were observed
[2]; Day 6 after tumor inoculation
  TGI (%): 11.9%
[2]; Day 8
  TGI (%): 8.4%
[2]; Day 10
  TGI (%): 7.0%
[2]; Day 13
  TGI (%): 16.5%
[2]; Day 15
  TGI (%): 29.4%
[2]; Day 17
  TGI (%): 32.6%
[2]; Day 20
  TGI (%): 28.5%
[2]; Day 22
  TGI (%): 36.4%
[2]; Day 24
  TGI (%): 35.6%

## CC(=O)O.Nc1nc(NCCc2ccc(NC3COC3)cc2)nc2nc(-c3ccco3)nn12 [Acetate of Compound 22, 2-(furan-2-yl)-N5-(4-(oxetane-3-ylamino)phenethyl)-[1,2,4]triazolo[1,5-a][1,3,5]triazine-5,7-diamine acetate]
[3]; 40° C./75% RH open
  XPRD (crystal form after storage): Transformed
  Purity over 7 days (area %): 98.99 area %
[3]; 60° C. and 40° C./75% RH, up to 7 days
  Degradation under test conditions: no significant degradation
[3]; 60° C. closed
  XPRD (crystal form after storage): Unchanged
  Purity over 7 days (area %): 99.01 area %
[4]; 1 mg/kg oral + L-DOPA (5 mg/kg)/Benserazide (1.25 mg/kg) i.p.
  Total number of rotations (60 min): 41.4 ± 80.8
[4]; 3 mg/kg oral + L-DOPA (5 mg/kg)/Benserazide (1.25 mg/kg) i.p.
  Total number of rotations (60 min): 36.6 ± 46.3
[4]; 10 mg/kg oral + L-DOPA (5 mg/kg)/Benserazide (1.25 mg/kg) i.p.
  Total number of rotations (60 min): 109.4 ± 205.2
[4]; 30 mg/kg oral + L-DOPA (5 mg/kg)/Benserazide (1.25 mg/kg) i.p.
  Total number of rotations (60 min): 285.2 ± 283.8
[4]; 100 mg/kg oral + L-DOPA (5 mg/kg)/Benserazide (1.25 mg/kg) i.p.
  Total number of rotations (60 min): 379.3 ± 326.4
[4]; single oral 1 mg/kg alone
  Total number of rotations (60 min): 7.7 ± 5.6
[4]; single oral 3 mg/kg alone
  Total number of rotations (60 min): 17.1 ± 18.7
[4]; single oral 10 mg/kg alone
  Total number of rotations (60 min): 11.6 ± 13.9
[4]; single oral 30 mg/kg alone
  Total number of rotations (60 min): 30.7 ± 22.5
[4]; single oral 100 mg/kg alone
  Total number of rotations (60 min): 35.2 ± 18.8

From patent US20230048888A1, “USE OF TRIAZOLOTRIAZINE DERIVATIVE IN TREATMENT OF DISEASES” (ZHEJIANG VIMGREEN PHARMACEUTICALS, LTD., priority 2019, published 2023)
